One test has as its system Bel-7402. Put plainly: Cytotoxicity against human Bel7402 cells after 48 hrs by MTT assay. In kind it is functional, cell-based. The settings on record: Bel-7402, 48 h.
A short description of test [1]: Cytotoxicity against human SPC-A1 cells after 48 hrs by MTT assay. In kind it is functional, cell-based. The settings on record: SPCA1, 48 h.

Regarding `C=C(C)[C@@]12OC3(c4ccccc4)O[C@@H]1[C@@H]1[C@@H]4O[C@]4(C)[C@@H](O)[C@@H]4C(=O)C(C)=C[C@@H]4[C@@]1(O3)[C@H](C)[C@@H]2OC(=O)c1ccccc1` (relative stereo), the concentration for half-maximal inhibition (IC50) with Bel-7402 amounted to 16.1 µM; in test [1], 37.3 µM.

As for `C=C(C)[C@@]12OC3(c4ccccc4)O[C@@H]1[C@@H]1[C@H](OC(C)=O)[C@@](C)(OC(=O)c4ccccc4)[C@@H](OC(C)=O)[C@@]4(O)[C@@H](C[C@H](C)[C@@H]4OC(C)=O)[C@@]1(O3)[C@H](C)[C@@H]2OC(C)=O` [TRIGOXYPHIN I], the IC50 in the test on Bel-7402 is 8.73 µM; in test [1], 11.1 µM.

For the origin of these results see ChEMBL document CHEMBL2034942, “Trigoxyphins H and I: two new daphnane diterpenoids from Trigonostemon xyphophylloides” (Bioorg Med Chem Lett, 2012).
